According to US20240317777A1, “NOVEL MACROCYCLIC AMINOPYRAZOLE COMPOUNDS AS CDK2 INHIBITORS” (Accutar Biotechnology Inc., priority 2023, published 2024):
Where two headings read alike, the source gives them in different places.

Key:
[1] = molecular target: CDK1-CYCLIN B (Homo sapiens, UniProt P06493); assay: CDK protein kinase inhibition by ADP-Glo assay, CDK1-CYCLIN B; assay type: biochemical; details: for IC50: ADP-Glo, 1000 μM ATP, read-out: CDK1-CYCLINB, IC50; for CDK2 Fold selectivity, CDK1: CDK2 versus CDK1
Procedure, shortened: (§1)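 Enzyme reactions contain 1000 μM ATP and 5 mM MgCl2 in HEPES pH 7.5 with BSA, Triton X-100, DTT, orthovanadate and beta-glycerophosphate. They proceed at 22° C before ADP-Glo luminescent detection of ADP produced.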

[2] = molecular target: CDK2-CYCLIN E1 (Homo sapiens, UniProt P24941); assay: CDK protein kinase inhibition by ADP-Glo assay, CDK2-CYCLIN E1; assay type: biochemical; details: ADP-Glo, 1000 μM ATP, read-out: CDK2-CYCLINE, IC50
Procedure, shortened: as §1

[3] = molecular target: CDK4-CYCLIN D1 (Homo sapiens, UniProt P11802); assay: CDK protein kinase inhibition by ADP-Glo assay, CDK4-CYCLIN D1; assay type: biochemical; details: for IC50: ADP-Glo, 1000 μM ATP, read-out: CDK4-CYCLIND1, IC50; for CDK2 Fold selectivity, CDK4: CDK2 versus CDK4
Procedure, shortened: as §1

[4] = molecular target: CDK6-CYCLIN D3 (Homo sapiens, UniProt Q00534); assay: CDK protein kinase inhibition by ADP-Glo assay, CDK6-CYCLIN D3; assay type: biochemical; details: for IC50: ADP-Glo, 1000 μM ATP, read-out: CDK6-CYCLIND3, IC50; for CDK2 Fold selectivity, CDK6: CDK2 versus CDK6
Procedure, shortened: as §1

[5] = molecular target: CDK9-CYCLIN T1 (Homo sapiens, UniProt P50750); assay: CDK protein kinase inhibition by ADP-Glo assay, CDK9-CYCLIN T1; assay type: biochemical; details: for IC50: ADP-Glo, 1000 μM ATP, read-out: CDK9-CYCLINT1, IC50; for CDK2 Fold selectivity, CDK9: CDK2 versus CDK9
Procedure, shortened: as §1

[6] = tested on: Phospho-Rb (Ser807/811) in OVCAR3 cells; assay: Phospho-Rb expression inhibition in OVCAR3 cells quantified by In Cell Western; assay type: cell-based; details: Homo sapiens, OVCAR-3, 24 hours, read-out: OVCAR-3 pRb IC50
Procedure, shortened: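 In-cell western: after 24 h compound exposure at 37° C, fixed OVCAR3 cells co-stained for pRb Ser807/811 (800 nm channel) and total Rb (680 nm channel), imaged by LI-COR Odyssey.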

[7] = tested on: CCNE1-amplified OVCAR3 cells; assay: Cell growth inhibition of CCNE1-amplified OVCAR3 cells (CellTiter-Glo); assay type: cell-based; details: Homo sapiens, OVCAR-3, 144 h, 6 days
Procedure, shortened: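 Growth read-out was CellTiter-Glo luminescence, taken after 10 min at room temperature at the end of a 6-day compound exposure at 37 °C. Compounds were diluted from DMSO stocks across various concentrations.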

[8] = tested on: CCNE1-normal SKOV3 cells; assay: Cell growth inhibition of CCNE1-normal SKOV3 cells (CellTiter-Glo); assay type: cell-based; details: Homo sapiens, SK-OV-3, 144 h, 6 days
Procedure, shortened: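 Growth was measured by CellTiter-Glo luminescence after 6 days' compound exposure at 37 °C. Cells were plated one day before dosing at 1000 per well in medium with 10% FBS, and compounds were diluted from DMSO stocks.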

CDK9-CYCLIN T1, sequence (P50750 whole entry): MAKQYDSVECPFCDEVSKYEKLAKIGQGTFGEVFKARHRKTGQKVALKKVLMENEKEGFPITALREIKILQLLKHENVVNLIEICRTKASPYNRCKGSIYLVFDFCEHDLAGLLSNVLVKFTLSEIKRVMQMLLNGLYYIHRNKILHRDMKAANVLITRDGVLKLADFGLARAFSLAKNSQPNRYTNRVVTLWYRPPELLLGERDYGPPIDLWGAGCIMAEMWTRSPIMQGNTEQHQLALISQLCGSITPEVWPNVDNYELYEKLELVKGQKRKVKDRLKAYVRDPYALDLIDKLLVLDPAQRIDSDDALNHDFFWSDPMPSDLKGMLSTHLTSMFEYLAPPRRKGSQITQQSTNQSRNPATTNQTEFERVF
CDK9-CYCLIN T1, sequence (O60563 whole entry partner): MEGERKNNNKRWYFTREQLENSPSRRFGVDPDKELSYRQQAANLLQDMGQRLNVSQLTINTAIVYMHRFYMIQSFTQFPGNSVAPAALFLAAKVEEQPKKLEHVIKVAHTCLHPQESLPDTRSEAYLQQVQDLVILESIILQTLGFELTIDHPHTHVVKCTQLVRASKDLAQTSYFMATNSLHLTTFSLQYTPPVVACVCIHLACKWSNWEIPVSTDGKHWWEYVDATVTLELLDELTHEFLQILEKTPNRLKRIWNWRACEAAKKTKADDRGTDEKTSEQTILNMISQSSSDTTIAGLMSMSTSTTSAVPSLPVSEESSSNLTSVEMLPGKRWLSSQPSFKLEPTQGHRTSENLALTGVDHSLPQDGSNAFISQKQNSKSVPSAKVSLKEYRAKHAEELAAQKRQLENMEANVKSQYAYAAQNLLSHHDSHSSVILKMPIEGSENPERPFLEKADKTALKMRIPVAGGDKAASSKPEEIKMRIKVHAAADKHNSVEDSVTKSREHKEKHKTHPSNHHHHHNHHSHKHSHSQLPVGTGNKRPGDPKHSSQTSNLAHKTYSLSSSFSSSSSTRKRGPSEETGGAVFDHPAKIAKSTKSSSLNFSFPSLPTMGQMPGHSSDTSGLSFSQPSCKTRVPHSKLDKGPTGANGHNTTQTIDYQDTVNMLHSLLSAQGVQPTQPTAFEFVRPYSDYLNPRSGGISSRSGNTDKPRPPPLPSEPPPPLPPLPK
CDK6-CYCLIN D3, sequence (Q00534 whole entry): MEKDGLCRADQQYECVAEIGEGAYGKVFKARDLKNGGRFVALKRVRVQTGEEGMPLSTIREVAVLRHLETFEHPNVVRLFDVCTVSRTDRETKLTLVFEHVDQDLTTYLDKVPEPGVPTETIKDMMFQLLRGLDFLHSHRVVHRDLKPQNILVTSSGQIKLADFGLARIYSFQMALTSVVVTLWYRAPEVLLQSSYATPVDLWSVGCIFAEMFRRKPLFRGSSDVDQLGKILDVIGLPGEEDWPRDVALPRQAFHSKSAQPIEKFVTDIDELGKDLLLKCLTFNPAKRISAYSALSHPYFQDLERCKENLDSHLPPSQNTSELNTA
CDK6-CYCLIN D3, sequence (P30281 whole entry partner): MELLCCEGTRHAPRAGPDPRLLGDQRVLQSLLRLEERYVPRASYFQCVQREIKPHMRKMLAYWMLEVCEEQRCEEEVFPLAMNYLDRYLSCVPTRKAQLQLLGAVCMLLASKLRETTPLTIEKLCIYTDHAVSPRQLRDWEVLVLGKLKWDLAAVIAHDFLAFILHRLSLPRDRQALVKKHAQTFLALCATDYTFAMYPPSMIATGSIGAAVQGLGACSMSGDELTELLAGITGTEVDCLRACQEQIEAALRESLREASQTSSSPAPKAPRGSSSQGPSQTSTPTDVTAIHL
CDK1-CYCLIN B, sequence (P06493 whole entry): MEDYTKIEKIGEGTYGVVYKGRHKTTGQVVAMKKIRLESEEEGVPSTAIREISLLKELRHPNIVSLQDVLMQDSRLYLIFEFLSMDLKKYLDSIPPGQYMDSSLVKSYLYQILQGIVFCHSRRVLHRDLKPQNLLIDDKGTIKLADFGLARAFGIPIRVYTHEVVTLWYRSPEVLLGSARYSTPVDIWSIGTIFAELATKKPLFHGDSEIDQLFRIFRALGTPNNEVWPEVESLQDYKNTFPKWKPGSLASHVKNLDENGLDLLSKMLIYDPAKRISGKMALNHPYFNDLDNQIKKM
CDK1-CYCLIN B, sequence (P14635 whole entry partner): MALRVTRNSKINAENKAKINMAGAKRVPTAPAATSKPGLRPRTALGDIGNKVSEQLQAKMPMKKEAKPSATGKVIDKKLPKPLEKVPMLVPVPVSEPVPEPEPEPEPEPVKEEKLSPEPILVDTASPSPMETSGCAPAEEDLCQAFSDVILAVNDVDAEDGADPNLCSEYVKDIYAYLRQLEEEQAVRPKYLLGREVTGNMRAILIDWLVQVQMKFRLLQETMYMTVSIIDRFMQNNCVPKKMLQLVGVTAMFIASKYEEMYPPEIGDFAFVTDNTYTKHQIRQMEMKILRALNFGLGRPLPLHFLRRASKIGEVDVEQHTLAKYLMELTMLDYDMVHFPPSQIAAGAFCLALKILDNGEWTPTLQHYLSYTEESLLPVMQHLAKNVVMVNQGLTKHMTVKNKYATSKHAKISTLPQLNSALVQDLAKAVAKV
CDK4-CYCLIN D1, sequence (P11802 whole entry): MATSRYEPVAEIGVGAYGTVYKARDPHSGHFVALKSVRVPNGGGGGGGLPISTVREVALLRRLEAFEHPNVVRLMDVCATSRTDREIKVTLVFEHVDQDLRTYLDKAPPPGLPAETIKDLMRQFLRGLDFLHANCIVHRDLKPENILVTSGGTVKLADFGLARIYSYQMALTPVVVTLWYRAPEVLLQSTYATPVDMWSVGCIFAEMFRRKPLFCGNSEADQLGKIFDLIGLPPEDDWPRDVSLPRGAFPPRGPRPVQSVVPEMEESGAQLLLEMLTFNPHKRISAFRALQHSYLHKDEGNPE
CDK4-CYCLIN D1, sequence (P24385 whole entry partner): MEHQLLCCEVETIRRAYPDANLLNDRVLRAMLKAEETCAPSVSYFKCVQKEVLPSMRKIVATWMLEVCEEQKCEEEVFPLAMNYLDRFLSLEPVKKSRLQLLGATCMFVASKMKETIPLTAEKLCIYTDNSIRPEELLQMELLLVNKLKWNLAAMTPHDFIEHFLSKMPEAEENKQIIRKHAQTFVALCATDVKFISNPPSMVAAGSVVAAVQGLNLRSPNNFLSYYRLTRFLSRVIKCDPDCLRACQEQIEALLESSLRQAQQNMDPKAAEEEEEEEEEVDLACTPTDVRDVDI

Row | IC50 ([1]; Table 19) [nM] | CDK2 Fold selectivity, CDK1 ([1]; Table 20) | IC50 ([2]; Table 19) [nM] | IC50 ([3]; Table 19) [nM] | CDK2 Fold selectivity, CDK4 ([3]; Table 20) | IC50 ([4]; Table 19) [nM] | CDK2 Fold selectivity, CDK6 ([4]; Table 20) | IC50 ([5]; Table 19) [nM] | CDK2 Fold selectivity, CDK9 ([5]; Table 20) | IC50 [6] [nM] | IC50 [7] [nM] | IC50 ([1]; Table 21) [nM] | CDK2 Fold selectivity, CDK1 ([1]; Table 22) | IC50 ([2]; Table 21) [nM] | IC50 ([3]; Table 21) [nM] | CDK2 Fold selectivity, CDK4 ([3]; Table 22) | IC50 ([4]; Table 21) [nM] | CDK2 Fold selectivity, CDK6 ([4]; Table 22) | IC50 ([5]; Table 21) [nM] | SMILES | IC50 [8] [nM] | also measured
1 | 100 to 500 | E (E, <20) | 50 to 100 | 100 to 500 | E (E, <20) | 100 to 500 | E (E, <20) | 100 to 500 | E (E, <20) | 10 to 50 | 50 to 250 | – | – | – | – | – | – | – | – | C[C@@H]1CC/C=C/c2cc(ccn2)Nc2cc(n[nH]2)[C@H]2CC[C@H](C2)OC(=O)N1 [Compound 126, (1^1S,1^3R,2^4Z,5E,9R)-9-methyl-2^1H-12-oxa-3,10-diaza-4(4,2)-pyridina-2(3,5)-pyrazola-1(1,3)-cyclopentanacyclododecaphan-5-en-11-one] | 250 to 1250 | –
2 | – | – | – | – | – | – | – | – | – | 2 to 10 | 2 to 10 | 100 to 500 | E (E, <20) | ≤ 10 | 100 to 500 | D (D, >20 and ≤50) | 100 to 500 | D (D, >20 and ≤50) | 100 to 500 | C[C@H]1Oc2cc(ccn2)Nc2cc(n[nH]2)[C@H]2CC[C@H](C2)OC(=O)N[C@H]2C[C@H]1C2 [Compound 144, (1^1S,1^3R,7^1R,7^3R,6R,Z)-6-methyl-2^1H-5,10-dioxa-3,8-diaza-4(4,2)-pyridina-2(3,5)-pyrazola-1(1,3)-cyclopentana-7(1,3)-cyclobutanacyclodecaphan-9-one] | 250 to 1250 | CDK2 Fold selectivity, CDK9 ([5]; Table 22): C (C, >50 and ≤100)

Continued, molecule first:

Row | SMILES | IC50 ([1]; Table 19) [nM] | CDK2 Fold selectivity, CDK1 ([1]; Table 20) | IC50 ([2]; Table 19) [nM] | IC50 ([3]; Table 19) [nM] | CDK2 Fold selectivity, CDK4 ([3]; Table 20) | IC50 ([4]; Table 19) [nM] | CDK2 Fold selectivity, CDK6 ([4]; Table 20) | IC50 ([5]; Table 19) [nM] | CDK2 Fold selectivity, CDK9 ([5]; Table 20) | IC50 [6] [nM] | IC50 [7] [nM] | IC50 ([1]; Table 21) [nM] | CDK2 Fold selectivity, CDK1 ([1]; Table 22) | IC50 ([2]; Table 21) [nM] | IC50 ([3]; Table 21) [nM] | CDK2 Fold selectivity, CDK4 ([3]; Table 22) | IC50 ([4]; Table 21) [nM] | CDK2 Fold selectivity, CDK6 ([4]; Table 22) | IC50 ([5]; Table 21) [nM] | IC50 [8] [nM] | also measured
3 | O=C1NC2CC3(C2)CC(C3)Oc2cc(ccn2)Nc2cc(n[nH]2)[C@H]2CC[C@H](C2)O1 [Compound 128, (6^1S,6^3R,Z)-5^1H-2,7-dioxa-4,9-diaza-3(2,4)-pyridina-5(5,3)-pyrazola-6(1,3)-cyclopentana-1,10(1,3)-dicyclobutanadecaphan-8-one] | – | – | – | – | – | – | – | – | – | 2 to 10 | 2 to 10 | – | – | – | – | – | – | – | – | 250 to 1250 | IC50 ([1]; Table 17): 10 to 50 nM; CDK2 Fold selectivity, CDK1 ([1]; Table 18): E (E, <20); IC50 ([2]; Table 17): ≤ 10 nM; IC50 ([3]; Table 17): 10 to 50 nM; CDK2 Fold selectivity, CDK4 ([3]; Table 18): D (D, >20 and ≤50); IC50 ([4]; Table 17): 10 to 50 nM; CDK2 Fold selectivity, CDK6 ([4]; Table 18): E (E, <20); IC50 ([5]; Table 17): 10 to 50 nM; CDK2 Fold selectivity, CDK9 ([5]; Table 18): E (E, <20)
4 | C[C@@H]1CCC#Cc2cc(ccn2)Nc2cc(n[nH]2)[C@H]2CC[C@H](C2)OC(=O)N1 [Compound 137, (1^1S,1^3R,2^4Z,9R)-9-methyl-2^1H-12-oxa-3,10-diaza-4(4,2)-pyridina-2(3,5)-pyrazola-1(1,3)-cyclopentanacyclododecaphan-5-yn-11-one] | 100 to 500 | E (E, <20) | 10 to 50 | > 500 | E (E, <20) | > 500 | D (D, >20 and ≤50) | > 500 | D (D, >20 and ≤50) | 10 to 50 | 50 to 250 | – | – | – | – | – | – | – | – | > 1250 | –
5 | C[C@H]1Oc2cncc(c2)Nc2cc(n[nH]2)[C@H]2CC[C@H](C2)OC(=O)N[C@H]2C[C@H]1C2 [Compound 148, (1^1S,1^3R,7^1R,7^3R,6R,Z)-6-methyl-2^1H-5,10-dioxa-3,8-diaza-4(3,5)-pyridina-2(3,5)-pyrazola-1(1,3)-cyclopentana-7(1,3)-cyclobutanacyclodecaphan-9-one] | – | – | – | – | – | – | – | – | – | ≤ 2 | 2 to 10 | 10 to 50 | E (E, <20) | ≤ 10 | 50 to 100 | E (E, <20) | 50 to 100 | D (D, >20 and ≤50) | 100 to 500 | 250 to 1250 | CDK2 Fold selectivity, CDK9 ([5]; Table 22): D (D, >20 and ≤50)
